Numbers after ± are expanded uncertainties.
Details: Crystal; DTA

Row | Normal melting temperature | Compound
1 | 90.13 ± 3 °C | COc1c([N+](=O)[O-])cc(Cn2ccnn2)cc1[N+](=O)[O-] [1-(4-methoxy-3,5-dinitrobenzyl)-1H-1,2,3-triazole]
2 | 168.96 ± 3 °C | COc1ccc([N+](=O)[O-])c(-n2ccnn2)c1[N+](=O)[O-] [1-(3-methoxy-2,6-dinitrophenyl)-1H-1,2,3-triazole]

Source: the NIST ThermoML archive (doi:10.1016/j.tca.2015.06.020)
